Read-outs that look alike come from different tables or passages of the source.
Assays:
[1] = test system: NanoLuc; assay: NanoLuc luciferase reporter expression from constitutive promoters and RBSs integrated with pNBU2; format: cell-based, B. thetaiotaomicron; conditions: for Average Luminescence (RLU/CFU): RBS combined with promoter PBT1311, NanoLuc reporter, three biological replicates; for Expression Level (RLU/CFU): set of 8 RBSs, under control of PBT1311, NanoLuc reporter
[2] = test system: NanoLuc; assay: Response curves of inducible promoters driving NanoLuc; format: cell-based, B. thetaiotaomicron; conditions: for change in gene expression on induction: IPTG induction
Procedure: FIGS. 2A-2E. Design and characterization of genetic sensors. (FIGS. 2A-2D) Response curves for NanoLuc under the regulated control of the rhamnose—(Rha) (FIG. 2A), chondroitin sulfate—(ChS) (FIG. 2B), arabinogalactan—(AG) (FIG. 2C), or IPTG—(FIG. 2D) inducible promoters. LacO1 operator sites were inserted in various regions (O1, O2, O3) of the PcfxA promoter (see also FIGS. 7A-7B). Inducer concentrations were applied as follows: three-fold serial dilutions starting at 10 mM Rha (FIG. 2A); three-fold serial dilutions starting at 0.4% for ChS (FIG. 2B) and AG (FIG. 2C); and four-fold serial dilutions starting at 500 μM for IPTG (FIG. 2D). The leftmost data point in each plot represents the background luminescence in the absence of inducer. Response curves were fit to a Hill function (solid lines). (FIG. 2E) Orthogonality matrix of sugar-inducible genetic systems incubated with 10 mM rhamnose (Rha), 0.2% chondroitin sulfate (ChS), 0.2% arabinogalactan (AG), or 100 mM IPTG compared to no inducer. Error bars represent the standard deviation of three biological replicates made on different days.
FIGS. 7A-7B. Synthetic IPTG-inducible promoters. (FIG. 7A) Synthetic IPTG-inducible promoters were constructed by placing LacO1 operator sites (red) upstream of the −33 element (O1), between the −33 and −7 elements (O2) and/or directly downstream of the transcription start site (O3) of the strong PcfxA promoter. Predicted −33, −7 and +1 sites are shown in bold. These promoters are regulated by the E. coli LacIQ repressor expressed from PBT1311. FIG. 7A depicts SEQ ID NOs: 217 to 220 from top to bottom, respectively. (FIG. 7B) Response curves for the synthetic IPTG-inducible systems. Cells were incubated with no inducer or four-fold serial dilutions of IPTG starting at 500 μM. Data sets for PLacO13 and PLacO23 were fit to a Hill function (solid line). Error bars represent the standard deviation of three biological replicates made on three different days (n=3).
To create inducible systems for use in B. thetaiotaomicron, parts from a large repertoire of systems that govern carbohydrate utilization were used, which included cytoplasmic transcription factors, extracytoplasmic function sigma/anti-sigma pairs, and hybrid two-component systems (HTCS), among others (64). In B. thetaiotaomicron, rhamnose metabolism is mediated by the AraC/XylS-family transcriptional activator, RhaR, which activates transcription at the PBT3763 promoter (Patel E H, et al. Res. Microbiol. 159:678-84, 2008). To assay the functionality of PBT3763 as an inducible system, 250 bp of the promoter-RBS region was cloned upstream of the start codon of BT3763 into the pNBU2 expression vector to drive expression of NanoLuc.
Two-component systems are signal-transduction mechanisms widespread in bacteria for sensing external stimuli. […] Putative HTCSs, BT3334 and BT0267, were identified in transcriptomic studies to control expression of the chondroitin sulfate (ChS)-inducible PBT3324 promoter and arabinogalactan (AG)-inducible PBT0268 promoter, respectively (64, 83). The promoter regions upstream of the BT3324 and BT0268 genes were used as the basis for two polysaccharide sensors. Chondroitin sulfate induction of PBT3324 and arabinogalactan induction PBT0268 led to a 60-fold and 29-fold regulation of output gene expression, respectively (FIGS. 2B and 2C).
Next, an IPTG-inducible system was developed. Pairs of LacO1 operator sites were inserted in the strong PcfxA promoter in three locations: upstream of the −33 element (O1), between the −33 and −7 elements (O2) or just downstream of the transcription start site (O3) (FIGS. 7A-7B). The LacI^Q repressor was expressed from the strong BT1311 promoter to achieve tight control of NanoLuc expression. Compared to the unmodified PcfxA promoter, the addition of synthetic operator sites diminished the maximum expression of NanoLuc (FIGS. 7A-7B). […]

[3] = IPTG inducer, LacIQ expressed from BT1311 promoter, read-out: threshold K

Molecule | Average Luminescence (RLU/CFU) [1] | further results
C39: RBS, SEQ ID NO: 109 (DNA TCCCGCATTTTAAAATAAAATAAATTATTCCTTTATTTAAACGAAT; chemistry not fully specified) | 0.004534 RLU/CFU | 
C40: RBS, SEQ ID NO: 115 (DNA TCCCGCATTTTAAAATAAAATAAATTATTCCTTTACTTAAACGAAT; chemistry not fully specified) | 0.003759 RLU/CFU | 
C41: RBS, SEQ ID NO: 117 (DNA TCCCGCATTTTAAAATAAAATAAATTATTGGTTTATTTAAACGAAT; chemistry not fully specified) | 0.003107 RLU/CFU | 
C42: RBS, SEQ ID NO: 119 (DNA TCCCGCATTTTAAAATAAAATAAATTATTCTTTTAGTTAAACGAAT; chemistry not fully specified) | 0.002801 RLU/CFU | 
C43: RBS, SEQ ID NO: 120 (DNA TCCCGCATTTTAAAATAAAATAAATTATTTCTTTAGTTAAACGAAT; chemistry not fully specified) | 0.00264 RLU/CFU | 
C44: RBS, SEQ ID NO: 122 (DNA TCCCGCATTTTAAAATAAAATAAATTATTTGTTTACTTAAACGAAT; chemistry not fully specified) | 0.00249 RLU/CFU | 
C45: RBS, SEQ ID NO: 124 (DNA TCCCGCATTTTAAAATAAAATAAATTATTCATTTAGTTAAACGAAT; chemistry not fully specified) | 0.0024 RLU/CFU | 
C46: RBS, SEQ ID NO: 125 (DNA TCCCGCATTTTAAAATAAAATAAATTATTTGTTTAGTTAAACGAAT; chemistry not fully specified) | 0.001945 RLU/CFU | 
C47: RBS, SEQ ID NO: 126 (DNA TCCCGCATTTTAAAATAAAATAAATTATTTGTTTAATTAAACGAAT; chemistry not fully specified) | 0.00189 RLU/CFU | 
C48: RBS, SEQ ID NO: 128 (DNA TCCCGCATTTTAAAATAAAATAAATTATTCCTTTAGTTAAACGAAT; chemistry not fully specified) | 0.001758 RLU/CFU | 
C49: RBS, SEQ ID NO: 129 (DNA TCCCGCATTTTAAAATAAAATAAATTATTGTTTTATTTAAACGAAT; chemistry not fully specified) | 0.001598 RLU/CFU | 
C50: RBS, SEQ ID NO: 132 (DNA TCCCGCATTTTAAAATAAAATAAATTATTTGTTTATTTAAACGAAT; chemistry not fully specified) | 0.001261 RLU/CFU | 
C51: RBS, SEQ ID NO: 136 (DNA TCCCGCATTTTAAAATAAAATAAATTATTATTTTATTTAAACGAAT; chemistry not fully specified) | 0.0006273 RLU/CFU | Expression Level (RLU/CFU) [1]: 6.27E-04 RLU/CFU
C52: RBS, SEQ ID NO: 138 (DNA TCCCGCATTTTAAAATAAAATAAATTATTGGTTTACTTAAACGAAT; chemistry not fully specified) | 0.000163 RLU/CFU | Expression Level (RLU/CFU) [1]: 1.63E-04 RLU/CFU
C53: RBS, SEQ ID NO: 140 (DNA TCCCGCATTTTAAAATAAAATAAATTATTCGTTTAATTAAACGAAT; chemistry not fully specified) | 7.299E-05 RLU/CFU | Expression Level (RLU/CFU) [1]: 7.30E-05 RLU/CFU
C54: RBS, SEQ ID NO: 141 (DNA TCCCGCATTTTAAAATAAAATAAATTATTCGTTTATTTAAACGAAT; chemistry not fully specified) | 3.651E-05 RLU/CFU | 
C55: RBS, SEQ ID NO: 142 (DNA TCCCGCATTTTAAAATAAAATAAATTATTCGTTTACTTAAACGAAT; chemistry not fully specified) | 2.628E-05 RLU/CFU | 
C56: RBS, SEQ ID NO: 143 (DNA TCCCGCATTTTAAAATAAAATAAATTATTCGTTTAGTTAAACGAAT; chemistry not fully specified) | 2.2125E-05 RLU/CFU | Expression Level (RLU/CFU) [1]: 2.21E-05 RLU/CFU
rpiL*-C39: RBS, SEQ ID NO: 176; sequence and value match B39 of Table 1 (DNA TCCCGCATTTTAAAATAAAATAAATCATCTAGTTAATTAAACGAATATG; chemistry not fully specified) |  | Expression Level (RLU/CFU) [1]: 1.26E-03 RLU/CFU
rpiL*: parent ribosomal protein RBS, SEQ ID NO: 39, 172, 174 (DNA TCCCGCATTTTAAAATAAAATAAATTATTTATTTAATTAAACGAAT; chemistry not fully specified) | 0.02133 RLU/CFU | Expression Level (RLU/CFU) [1]: 2.13E-02 RLU/CFU
PBT3324: Chondroitin-sulfate inducible promoter + RBS, SEQ ID NO: 145 (nucleic acid) DNA: TATTTATAAGAGATAGCACATAATTTGAACTATTTTGTACGATTTGAACCCCTCTTTCCAACAAAAGAGGGGTTTCTTTGCATTCGGGAGAAGAACAAGTGATCTCTCTCTGTAAATACCGGCTAATGATAAACCGATTTACCATCGGACCTAAAACGATATATTCTATGATAAAGCAATCTTTTACTCTGTCAGTGACA |  | regulation of output gene expression ([2]; chondroitin sulfate induction): 60 fold
PLacO13: Synthetic IPTG-inducible promoter + RBS, SEQ ID NO: 148 (nucleic acid) DNA: TTACAAAGAAAATTCGACAAACTGTTATTTTTCTATCTATTTAAATTGTGAGCGGATAACAATTTGGGTGGGAAACTTTAGTTATGTACCTTTGTCGGCAATTGTGAGCGGATAACAATTAAATAAAGATATTCTCGTCAAACAAATATAAATAATATAAAC |  | EC50 [2, 3]: 86 µM; change in gene expression on induction [2]: 8 fold
PLacO23: Synthetic IPTG-inducible promoter + RBS, SEQ ID NO: 149 (nucleic acid) DNA: TTACAAAGAAAATTCGACAAACTGTTATTTTTCTATCTATTTATTTGAATTGTGAGCGGATAACAATTACCTTTGTCGGCAATTGTGAGCGGATAACAATTAAATAAAGATATTCTCGTCAAACAAATATAAATAATATAAAC |  | EC50 [2, 3]: 6 µM; change in gene expression on induction [2]: 22 fold
PBT3763: Rhamnose inducible promoter + RBS, SEQ ID NO: 144 (nucleic acid) DNA: TATTTCGGAGAAAACATGCATAAATCATGCTTTTTTTGCATAAAAAGTAAAATTTATACTGATGTAAGGTTTGGCTATGCAGATTTGTGTCAAAATGCACATCCTTTCTATCAAAATGCGTAAGGAAAAGGAGGAAGGAACCGCCTATCTTTGCAATGTAGGTAAATGGATACCTTAAATATATAGACAAAATACC |  | Hill coefficient n ([2]; rhamnose inducer): 1.4; EC50 ([2]; rhamnose inducer, read-out: threshold K (Hill function fit)): 300 µM; output dynamic range ([2]; rhamnose induction, NanoLuc): 104 fold

— patent US11591604B2, “Gene expression in Bacteroides” (Massachusetts Institute of Technology, priority 2015, dated 2023)
